The numbers were not newly measured in patent publication US12569481B2, “Methods of treatment for gastrointestinal motility disorders” (Vanderbilt University, priority 2020, dated 2026), which cites them from elsewhere.

Each structure is given as a SMILES string.

The target of data set [1] is cardiac late sodium current (late INa) (Homo sapiens, UniProt Q14524).
The target in data set [2] is KCNH2-encoded hERG K+ channels (Homo sapiens, UniProt Q12809). The note with it: channels found in cardiac muscle and intestinal smooth muscle.
KCNH2-encoded hERG K+ channels, sequence (Q12809 whole entry): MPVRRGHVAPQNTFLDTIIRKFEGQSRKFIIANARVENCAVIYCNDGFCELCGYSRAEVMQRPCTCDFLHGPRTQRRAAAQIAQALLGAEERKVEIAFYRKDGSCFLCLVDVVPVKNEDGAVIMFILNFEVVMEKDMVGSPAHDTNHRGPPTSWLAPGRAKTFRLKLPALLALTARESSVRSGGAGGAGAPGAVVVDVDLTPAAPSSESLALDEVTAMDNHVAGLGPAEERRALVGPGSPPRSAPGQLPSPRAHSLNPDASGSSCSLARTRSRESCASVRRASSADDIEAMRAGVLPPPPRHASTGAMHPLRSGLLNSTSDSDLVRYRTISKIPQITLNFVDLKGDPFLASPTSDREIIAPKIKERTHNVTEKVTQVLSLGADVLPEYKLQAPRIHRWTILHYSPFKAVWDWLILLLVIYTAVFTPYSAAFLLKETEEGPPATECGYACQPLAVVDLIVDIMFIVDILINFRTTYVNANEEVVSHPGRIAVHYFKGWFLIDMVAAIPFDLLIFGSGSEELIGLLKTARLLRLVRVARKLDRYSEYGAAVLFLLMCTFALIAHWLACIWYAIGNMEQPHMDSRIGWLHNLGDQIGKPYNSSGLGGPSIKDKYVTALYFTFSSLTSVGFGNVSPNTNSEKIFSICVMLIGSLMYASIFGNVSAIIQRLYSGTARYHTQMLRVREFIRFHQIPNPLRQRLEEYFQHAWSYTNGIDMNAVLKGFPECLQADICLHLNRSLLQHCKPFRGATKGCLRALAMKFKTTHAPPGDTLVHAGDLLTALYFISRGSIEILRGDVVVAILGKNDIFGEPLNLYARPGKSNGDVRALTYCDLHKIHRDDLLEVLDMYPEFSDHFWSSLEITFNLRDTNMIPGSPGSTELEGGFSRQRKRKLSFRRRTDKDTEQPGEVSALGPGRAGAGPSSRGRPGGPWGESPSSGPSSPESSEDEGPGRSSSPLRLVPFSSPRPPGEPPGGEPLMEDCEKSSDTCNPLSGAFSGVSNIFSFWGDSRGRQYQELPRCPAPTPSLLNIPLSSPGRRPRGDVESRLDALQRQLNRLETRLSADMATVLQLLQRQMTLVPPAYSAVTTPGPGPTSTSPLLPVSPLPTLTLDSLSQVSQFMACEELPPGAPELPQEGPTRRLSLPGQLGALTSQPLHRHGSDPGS
Data set [3] concerns human colon muscle strips.
Assay in data set [4]: not given
The source holds these as a separate data set.

For data set [5] the following is noted: room temperature; over-encapsulated 500 mg extended release tablets.
Data set [6] addresses T1, sodium current in human colon SMCs (Homo sapiens, UniProt Q14524).
T1 construct: sodium current in human colon SMCs; endogenous in cells; host or cells: human colon smooth muscle cells (SMCs)

cardiac late sodium current (late INa), sequence (Q14524 whole entry): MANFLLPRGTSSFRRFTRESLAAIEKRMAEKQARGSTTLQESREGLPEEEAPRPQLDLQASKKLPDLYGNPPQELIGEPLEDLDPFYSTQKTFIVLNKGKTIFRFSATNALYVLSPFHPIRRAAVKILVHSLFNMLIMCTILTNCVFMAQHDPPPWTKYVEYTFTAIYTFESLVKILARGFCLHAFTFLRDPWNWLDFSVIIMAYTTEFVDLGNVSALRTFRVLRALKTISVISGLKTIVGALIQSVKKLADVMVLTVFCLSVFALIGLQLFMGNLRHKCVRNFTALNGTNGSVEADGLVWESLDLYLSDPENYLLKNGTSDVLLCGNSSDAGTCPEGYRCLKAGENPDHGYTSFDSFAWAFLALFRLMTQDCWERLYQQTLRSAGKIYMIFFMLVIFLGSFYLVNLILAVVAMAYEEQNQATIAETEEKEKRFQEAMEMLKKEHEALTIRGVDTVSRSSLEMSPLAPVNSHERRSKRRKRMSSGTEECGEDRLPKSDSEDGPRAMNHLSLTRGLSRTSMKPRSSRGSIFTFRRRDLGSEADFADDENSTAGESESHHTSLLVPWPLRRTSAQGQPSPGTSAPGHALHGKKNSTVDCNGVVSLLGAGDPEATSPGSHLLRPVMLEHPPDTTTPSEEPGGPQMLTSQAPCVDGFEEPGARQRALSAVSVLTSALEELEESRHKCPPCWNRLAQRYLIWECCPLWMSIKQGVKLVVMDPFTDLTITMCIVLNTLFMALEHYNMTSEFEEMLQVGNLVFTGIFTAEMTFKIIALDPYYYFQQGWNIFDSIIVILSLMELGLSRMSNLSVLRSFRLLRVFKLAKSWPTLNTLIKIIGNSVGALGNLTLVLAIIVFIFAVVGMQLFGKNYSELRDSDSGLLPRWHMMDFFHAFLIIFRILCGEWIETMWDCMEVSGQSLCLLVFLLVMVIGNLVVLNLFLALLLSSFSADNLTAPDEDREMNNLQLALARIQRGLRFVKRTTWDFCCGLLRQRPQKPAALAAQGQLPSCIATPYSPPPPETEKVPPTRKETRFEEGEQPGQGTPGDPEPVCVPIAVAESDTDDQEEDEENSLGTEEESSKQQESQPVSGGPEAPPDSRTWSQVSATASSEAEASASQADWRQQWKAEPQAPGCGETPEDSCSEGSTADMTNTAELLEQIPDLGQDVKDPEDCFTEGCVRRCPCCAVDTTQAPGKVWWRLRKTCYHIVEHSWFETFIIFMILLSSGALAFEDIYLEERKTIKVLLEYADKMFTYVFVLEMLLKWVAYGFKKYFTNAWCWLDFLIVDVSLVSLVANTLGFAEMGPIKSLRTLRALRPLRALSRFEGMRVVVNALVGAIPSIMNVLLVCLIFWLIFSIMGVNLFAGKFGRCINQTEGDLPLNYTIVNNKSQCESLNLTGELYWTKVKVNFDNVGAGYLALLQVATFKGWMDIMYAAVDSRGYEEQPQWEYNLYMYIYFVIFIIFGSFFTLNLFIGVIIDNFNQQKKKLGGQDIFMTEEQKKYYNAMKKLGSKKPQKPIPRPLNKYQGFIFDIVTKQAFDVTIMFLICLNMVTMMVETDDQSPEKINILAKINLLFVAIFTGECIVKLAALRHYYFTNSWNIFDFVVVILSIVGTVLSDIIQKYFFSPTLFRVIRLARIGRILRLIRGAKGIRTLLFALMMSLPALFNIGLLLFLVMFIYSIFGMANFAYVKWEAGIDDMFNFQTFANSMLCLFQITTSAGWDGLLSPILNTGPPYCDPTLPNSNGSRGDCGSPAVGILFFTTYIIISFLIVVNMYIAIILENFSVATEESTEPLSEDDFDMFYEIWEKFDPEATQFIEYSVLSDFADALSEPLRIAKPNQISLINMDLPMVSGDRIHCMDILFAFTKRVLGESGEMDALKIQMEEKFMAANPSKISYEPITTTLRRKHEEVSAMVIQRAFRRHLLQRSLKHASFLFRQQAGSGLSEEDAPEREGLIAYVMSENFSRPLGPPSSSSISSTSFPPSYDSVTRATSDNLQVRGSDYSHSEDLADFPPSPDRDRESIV

Take `COc1ccccc1OCC(O)CN1CCN(CC(=O)Nc2c(C)cccc2C)CC1` (centres unmarked) [Ranolazine]: the “selectivity for late INa vs peak INa” value in data set [1] (late INa vs peak INa) is on record as “nine”. Further, the “inhibition of cardiac late sodium current (late INa)” value in data set [1] (residual Na+ flowing after peak INa during an action potential) was “inhibitor”. Besides, the “block of KCNH2-encoded hERG K+ channels” value in data set [2] was “block”. Further, the effect on contractility entry in data set [3] was “decreases contractility”. Moreover, the metabolism entry (cytochrome P-450 3A enzyme (CYP3A) pathway in the liver) is listed as “rapidly metabolized”. Moreover, the half-life result (in vivo) is given as “seven”. Where the note is “ingested, urine”, the “ingested ranolazine excreted in the urine” value is listed as “At least 70%”. In addition, the “patients experiencing the most common side effects” value in data set [4] (dizziness, nausea, constipation, and headache) was “less than 2%”. The safety and tolerability entry in data set [4] (used properly and not concurrently with contraindicated drugs) was “safe and well-tolerated”. For the same compound, in data set [5], the storage time entry is reported as “up to 12 months”. In data set [6], the “effect on peak amplitude and mechanosensitivity of sodium current” value is “blocks both peak amplitude and mechanosensitivity”.
